Assay results as given in patent US11167006B2 (Shanghai Tianci Life Science Development Co., Ltd., priority 2016, dated 2021).
Square brackets hold non-standard residues; d marks the D form. Peptide text beside a SMILES is read from it. NMeY = CN[C@@H](Cc1ccc(O)cc1)C(=O)O; NMeF = CN[C@@H](Cc1ccccc1)C(=O)O

System: acute pain caused by photothermal therapy in male mice of Kunming strain
Test: Mouse photothermal tail flick analgesia experiment
Type: in vivo
Conditions: lateral ventricle injection
Procedure: After the drug was injected into the lateral ventricle, intrathecal, subcutaneous, and intraperitoneal, the modulating activity on pain was measured by the photothermal tail flick test in mouse.
In the lateral ventricle administration, the lateral ventricle tube-buried surgery of the mouse should be performed in advance to ensure the accuracy of the drug injection site. A brain stereotaxic instrument was used in the lateral ventricle tube-buried surgery of the mouse. Male mice of Kunming strain, weighing 21±2 g; brain stereotaxic instrument is Jiangwan I. After the mice were anesthetized with sodium pentobarbital (i.p., 80 mg/kg mouse body weight), the hair in the head surgery area of the mouse was cut off and the mouse was placed on the brain stereotactic instrument and fixed. The surgery area was disinfected with iodophor, the scalp was opened along the sagittal suture to reveal the skull and the position of the anterior fontanelle can be found. 3 mm backward and 1 mm left/right from the anterior fontanelle, the upper position of the lateral ventricle can be found. A self-made stainless steel tube (a section of 24-gauge, which is connected to a small section of PE-10 tube) is inserted 3 mm downward according to the above position, which is the lateral ventricle. A section of stainless steel string (28-gauge) is inserted into the above-mentioned steel tube to prevent cerebrospinal fluid spillage and foreign matter infection and block the steel pipe. The steel tube is fixed with medical dental powder and glue, and after solidification, the wound is sutured. After the surgery, the mice were recovered tier 4 days, and the follow-up experiment was started on the 5th day. Surgical instruments, stainless steel tubes, etc. involved in the experiment need to be disinfected before the surgery. The mouse lateral ventricle was injected with 4 μl of the drug each time, and then the steel tube was rinsed with 1 μl of physiological saline.
Spinal cord level administration is performed by intrathecal injection in conscious mice, and the specific procedure is described in the method reported by Hylden and Wilcox (Eur. J. Pharmacol. 1980, 67: 313). A 25 μL microinjector was inserted directly into the subarachnoid space between L5 and L6.
The intraperitoneal administration was directly injected using a 1 mL syringe at an injection volume of 10 μl/g body weight. At the time of injection, the mouse was held by left hand with their abdomen facing up and the head was at low position while the tail was at high position. The side of the midline of the abdomen was taken, the needle hole of the syringe was upward, the needle tip penetrates into the skin in a direction less than 20 degrees, the needle tip was slightly pushed in the direction of the mouse head and sticking abdominal wall, and then punctures into the abdominal cavity in the direction of 45 degrees, and was withdrawn to confirm that it has not been pierced into the blood vessel or the intestine, afterwards the drug solution is slowly pushed out.
Subcutaneous injection was also administered directly using a 1 mL syringe in an injection volume of 10 μl/g body weight. At the time of injection, the neck and tail of the mouse were fixed in the left hand, and the head and body were inclined downward at 45 degrees. The needle hole of the syringe is upward, the needle tip is slowly pierced into the skin on the right side of the back center line at an angle of less than 20 degrees, and the needle tip is lightly picked up to confirm that there is no piercing, afterwards the drug solution is slowly pushed out.
Male mice of Kunming strain were used to detect the effects of drugs on pain perception using a photothermal tail flick instrument. The ambient temperature is controlled at 22±1° C., and the experimental animals are free to eat and drink. The basic tail flick incubation period (3-5 seconds) was determined prior to administration, and mice that were too sensitive or dull were discarded. […]

Structure (SMILES)	ED50 value (nmol) (95% confidence interval), analgesic activity
C[C@@H](NC(=O)[C@@H](N)Cc1ccc(O)cc1)C(=O)NCC(=O)N[C@@H](Cc1ccccc1)C(=O)NCC(=O)N1CCC[C@H]1C(=O)N[C@@H](CCC(N)=O)C(=O)N[C@@H](CCCNC(=N)N)C(=O)N[C@@H](Cc1ccccc1)C(N)=O [Compound 3] (H-Y[dA]GFGPQRF-NH2)	0.4172 (0.3798 to 0.4583) nmol
CC(C)C[C@H](NC(=O)[C@H](Cc1ccccc1)NC(=O)CNC(=O)[C@@H](C)NC(=O)[C@@H](N)Cc1ccc(O)cc1)C(=O)N1CCC[C@H]1C(=O)N[C@@H](CCC(N)=O)C(=O)N[C@@H](CCCNC(=N)N)C(=O)N[C@@H](Cc1ccccc1)C(N)=O [Compound 4] (H-Y[dA]GFLPQRF-NH2)	0.1865 (0.1509 to 0.2304) nmol
C[C@@H](NC(=O)[C@@H](N)Cc1ccc(O)cc1)C(=O)NCC(=O)N[C@@H](Cc1ccccc1)C(=O)N[C@H](C)C(=O)N1CCC[C@H]1C(=O)N[C@@H](CCC(N)=O)C(=O)N[C@@H](CCCNC(=N)N)C(=O)N[C@@H](Cc1ccccc1)C(N)=O [Compound 8, Tyr-D-Ala-Gly-Phe-D-Ala-Pro-Gln-Arg-Phe-NH2] (H-Y[dA]GF[dA]PQRF-NH2)	0.3361 (0.2864 to 0.3944) nmol
CSCC[C@H](NC(=O)[C@H](Cc1ccccc1)NC(=O)CNC(=O)[C@@H](C)NC(=O)[C@@H](N)Cc1ccc(O)cc1)C(=O)N1CCC[C@H]1C(=O)N[C@@H](CCC(N)=O)C(=O)N[C@@H](CCCNC(=N)N)C(=O)N[C@@H](Cc1ccccc1)C(N)=O [Compound 5] (H-Y[dA]GFMPQRF-NH2)	0.2957 (0.2637 to 0.3338) nmol
C[C@@H](NC(=O)[C@@H](N)Cc1ccc(O)cc1)C(=O)NCC(=O)N(C)[C@@H](Cc1ccccc1)C(=O)N[C@@H](CCC(N)=O)C(=O)N1CCC[C@H]1C(=O)N[C@@H](CCC(N)=O)C(=O)N[C@@H](CCCNC(=N)N)C(=O)N[C@@H](Cc1ccccc1)C(N)=O [Compound 2, Tyr-D-Ala-Gly-NMe-Phe-Gln-Pro-Gln-Arg-Phe-NH2] (H-Y[dA]G[NMeF]QPQRF-NH2)	0.3862 (0.3590 to 0.4154) nmol
CC(C)C[C@@H](NC(=O)[C@H](Cc1ccccc1)NC(=O)CNC(=O)[C@@H](C)NC(=O)[C@@H](N)Cc1ccc(O)cc1)C(=O)N1CCC[C@H]1C(=O)N[C@@H](CCC(N)=O)C(=O)N[C@@H](CCCNC(=N)N)C(=O)N[C@@H](Cc1ccccc1)C(N)=O [Compound 7, Tyr-D-Ala-Gly-Phe-D-Leu-Pro-Gln-Arg-Phe-NH2] (H-Y[dA]GF[dL]PQRF-NH2)	0.4367 (0.3865 to 0.4934) nmol
CSCC[C@@H](NC(=O)[C@H](Cc1ccccc1)NC(=O)CNC(=O)[C@@H](C)NC(=O)[C@@H](N)Cc1ccc(O)cc1)C(=O)N1CCC[C@H]1C(=O)N[C@@H](CCC(N)=O)C(=O)N[C@@H](CCCNC(=N)N)C(=O)N[C@@H](Cc1ccccc1)C(N)=O [Compound 6, Tyr-D-Ala-Gly-Phe-D-Met-Pro-Gln-Arg-Phe-NH2] (H-Y[dA]GF[dM]PQRF-NH2)	0.3986 (0.3716 to 0.4275) nmol
CN[C@@H](Cc1ccc(O)cc1)C(=O)N[C@H](C)C(=O)NCC(=O)N[C@@H](Cc1ccccc1)C(=O)N[C@@H](CCC(N)=O)C(=O)N1CCC[C@H]1C(=O)N[C@@H](CCC(N)=O)C(=O)N[C@@H](CCCNC(=N)N)C(=O)N[C@@H](Cc1ccccc1)C(N)=O [Compound 1] (H-[NMeY][dA]GFQPQRF-NH2)	1.2980 (1.2000 to 1.4050) nmol
